Literature values in patent US8506932B2, “Tetracyclic indole derivatives as in vivo imaging agents and having peripheralbenzodiazepine receptor affinity (PBR)” (Hammersmith Imanet Limited, priority 2005, dated 2013).

Experiments:
[1] = stated as known limitation
PBR = PBR (Homo sapiens, UniProt P30536); settings: stated as known limitation
Chain of PBR (P30536 whole entry, species assumed): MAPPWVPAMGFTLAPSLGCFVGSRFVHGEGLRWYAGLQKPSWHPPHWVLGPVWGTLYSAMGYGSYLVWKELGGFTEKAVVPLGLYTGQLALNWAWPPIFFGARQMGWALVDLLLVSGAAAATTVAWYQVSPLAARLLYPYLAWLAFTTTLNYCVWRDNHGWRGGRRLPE

Q: For CC[C@@H](C)N([11CH3])C(=O)c1cc2ccccc2c(-c2ccccc2Cl)n1 [(R)-[11C]PK11195], which protein binding [1] is on record?
A: high

Q: And the “specific to non-specific binding” value (PBR)?
A: low
